Assays:
[1] = system: Human glioblastoma cell line U251; experiment: MTT cell viability assay, U251; assay type: cell-based; conditions: U-251, MTT, 72 h, read-out: IC50 antiproliferative activity U251
Description: (§1) Cell viability was measured using the 3-(4,5-dimethylthiazol-2-yl)-2,5-diphenyltetrazolium bromide (MTT) assay and was expressed as a ratio to the absorbance value at 570 nm of the control cells.

[2] = system: U87 cells; experiment: Cell apoptosis assay by flow cytometry (Annexin V-FITC/PI); assay type: cell-based, Human; conditions: 10 μM, Annexin V/PI (control 3.3%)
Description: For apoptosis assays, 5 × 10^5 U87 cells were seeded into six-well plates for 24 h and treated with a range of concentrations of DMC-HA for 36 h. Annexin V-FITC/PI apoptosis detection kit was used to perform the apoptotic assay following the manufacturer’s instructions (Beyotime, Jiangsu, China). After treatment, 1 × 10^6 cells were washed using 1 ml binding buffer for three times, then centrifuged at 300×g and stained with 10 μl Annexin V-FITC solution at 37°C for 15 min. Before detecting, 5 μl PI solution was added to the samples, and the apoptotic cells were detected using flow cytometry (FACSCalibur BD, BD Biosciences, San Jose, CA, USA).
To further investigate the apoptotic effect of DMC-HA on GBM, we treated U87 cells with increasing concentrations of DMC-HA. After 48 h, the morphological changes of DMC-HA-treated U87 cells were observed, such as cell shrinking, rounding, and detachment (Figure 4A). […] To further confirm whether DMC-HA could induce apoptosis in U87 cells, cells were stained with Annexin V and PI after treatment with various concentrations of DMC-HA.

[3] = system: Human umbilical vein endothelial cells HUVEC; experiment: MTT cell viability assay, HUVEC; assay type: cell-based
Description: as §1

[4] = system: Human colon carcinoma cell line SW-620; experiment: MTT cell viability assay, SW-620; assay type: cell-based; conditions: SW-620, MTT, 72 h, read-out: IC50 antiproliferative activity SW-620
Description: as §1

[5] = system: Human liver cancer cell line HepG2; experiment: MTT cell viability assay, HepG2; assay type: cell-based; conditions: HepG2, MTT, 72 h, read-out: IC50 antiproliferative activity HepG2
Description: as §1

[6] = system: Human glioma cell line LN229; experiment: MTT cell viability assay, LN229; assay type: cell-based; conditions: LN-229, MTT, 72 h, read-out: IC50 antiproliferative activity LN229
Description: as §1

Q: Which IC50 [1] does the source give for `COc1cc(/C=C/C(=O)CC(=O)/C=C/c2ccc(/C=C/C(=O)NO)cc2)ccc1O` [DMC-HA] here?
A: The IC50 was 2.99 ± 0.48 µM.

Q: And the total apoptotic cells [2]?
A: The total apoptotic cells was 90.0%.

Q: And the IC50 ([3]; Homo sapiens, HUVEC, MTT, 72 h, normal cells, read-out: IC50 HUVEC)?
A: The IC50 was 27.4 ± 3.94 µM.

Q: And the “toxicity to human umbilical vein endothelial cells (HUVECs)” value ([3]; in words)?
A: Its value is “low toxicity”.

Q: What about the IC50 [4] of the same molecule?
A: Its IC50 is 3.22 ± 0.3 µM.

Q: What about the IC50 [5] of the same molecule?
A: The IC50 was 4.28 ± 0.52 µM.

Q: What about the IC50 [6] of the same molecule?
A: The IC50 was 3.38 ± 0.29 µM.

From PMC8602566 (Frontiers in Oncology, 2021)
